Patent US20150216933A1, “HEMATOPOIETIC STEM CELL GROWTH FACTOR” (DUKE UNIVERSITY, priority 2008, published 2015)

Columns and labels:
[1] = system: PI 3-kinase; assay type: cell-based, mouse
Text: In order to determine a potential mechanism through which PTN mediates HSC expansion, an examination was made as to whether PTN altered pathways that are known to be affected by RPTPβ/ζ (Meng et al, Proc Natl Acad Sci USA 97: 2603-8 (2000), Stoica et al, J Biol Chem 276:16772-9 (2001), Landgraf et al, J Biol Chem 283:25036-45 (2008), Deuel et al, Arch Biochem Biophys 397:162-71 (2002)). Canonical PTN signaling occurs via binding and inactivation of RPTPβ/ζ (Meng et al, Proc Natl Acad Sci USA 97: 2603-8 (2000)), which can facilitate the tyrosine phosphorylation of several intracellular substrates, including Akt and β-catenin (Souttou et al, J Biol Chem 272:19588-93 (1997), Gu et al, FEBS Lett 581:382-8 (2007)). […] BM 34^− KSL cells were treated with TSF with and without 100 ng/mL PTN in the presence and absence of 10 μM wortmannin, a PI 3-kinase inhibitor (Souttou et al, J Biol Chem 272:19588-93 (1997)).

[2] = system: Bone marrow lineage negative (lin-) progenitor cells; experiment: 7 day culture of bone marrow lin- progenitor cells with individual cytokines or TSF with and without PTN; assay type: cell-based; details: 7 days, individual cytokine
Procedure: Bone marrow lineage negative (lin-) progenitor cells were placed in culture for 7 days with 20 ng/mL thromobopoietin (TPO), 120 ng/mL stem cell factor (SCF) or 50 ng/mL Flt-3 ligand or the combination of all 3 cytokines (TSF) with and without 100 ng/mL pleiotrophin (PTN).

Molecule	reduction in BM KSL cell expansion compared to TSF+PTN alone [1]	reduction in total cell expansion compared to TSF+PTN alone [1]	support of BM progenitor cells in culture [2]
COC[C@H]1OC(=O)c2coc3c2[C@@]1(C)C1=C(C3=O)[C@@H]2CCC(=O)[C@@]2(C)C[C@H]1OC(C)=O [wortmannin]	8.1 fold	3.4 fold	–
SCF: stem cell factor, 120 ng/mL, with or without PTN	–	–	modest expansion
thromobopoietin: cytokine, 20 ng/mL alone in culture	–	–	Neither thromobopoietin alone nor Fit-3 ligand alone supported viable BM progenitor cells
Fit-3 ligand: cytokine, 50 ng/mL alone in culture (protein, UniProt P49771 27-235, looked up) Fms-related tyrosine kinase 3 …: TQDCSFQHSPISSDFAVKIRELSDYLLQDYPVTVASNLQDEELCGGLWRLVLAQRWMERLKTVAGSKMQGLLERVNTEIHFVTKCAFQPPPSCLRFVQTNISRLLQETSEQLVALKPWITRQNFSRCLELQCQPDSSTLPPPWSPRPLEATAPTAPQPPLLLLLLLPVGLLLLAAAWCLHWQRTRRRTPRPGEQVPPVPSPQDLLLVEH	–	–	Neither thromobopoietin alone nor Fit-3 ligand alone supported viable BM progenitor cells
